Test results published in US20060128979A1, “High purity palm monoglycerides” (Lembaga Minyak Sawit Malaysia, priority 2004, published 2006).

Key:
Format in all cases: cell-based
[1] = test system: methicillin-resistant Staphylococcus aureus (MRSA) isolate SA; experiment: Disc diffusion assay, MRSA isolate SA
From the text: (§1) Monolaurin samples (MC, MW and MX) synthesized using the present invention were subjected to bio-assay evaluation. Disc diffusion assay was adopted as preliminary evaluation of the compounds as anti methicillin-resistant Staphylococcus aureus (MRSA) agent. Four types of antibiotics were used as comparison: Vancomycin (Va), Rifampicin (RD), Chloamphenicol (C) and Gentamicin (CN).

[2] = test system: methicillin-resistant Staphylococcus aureus (MRSA) isolate CT184; experiment: Disc diffusion assay, MRSA isolate CT184
From the text: as §1

[3] = test system: methicillin-resistant Staphylococcus aureus (MRSA) isolate D51; experiment: Disc diffusion assay, MRSA isolate D51
From the text: as §1

[4] = test system: methicillin-resistant Staphylococcus aureus (MRSA) isolate N34; experiment: Disc diffusion assay, MRSA isolate N34
From the text: as §1

[5] = test system: methicillin-resistant Staphylococcus aureus (MRSA) isolate U949; experiment: Disc diffusion assay, MRSA isolate U949
From the text: as §1

[6] = test system: methicillin-resistant Staphylococcus aureus (MRSA) isolate ST122; experiment: Disc diffusion assay, MRSA isolate ST122
From the text: as §1

[7] = test system: methicillin-resistant Staphylococcus aureus (MRSA) isolate SP521; experiment: Disc diffusion assay, MRSA isolate SP521
From the text: as §1

[8] = test system: methicillin-resistant Staphylococcus aureus (MRSA) isolate HIS87; experiment: Disc diffusion assay, MRSA isolate HIS87
From the text: as §1

[9] = C (Chloamphenicol) as comparison

For `CCCCCCCCCCCC(=O)OCC(O)CO` (stereo not shown) [MC, monolaurin], the “Diameter of Inhibitory Zone” value [1, 9] was 2.00 mm, the “Diameter of Inhibitory Zone” value ([1]; CN (Gentamicin) as comparison) was 0.40 mm and the “Diameter of Inhibitory Zone” value ([1]; Rd (Rifampicin) as comparison) was 0.40 mm. For the same molecule, the “Diameter of Inhibitory Zone” value ([1]; Va (Vancomycin) as comparison) was 2.92 mm, the “Diameter of Inhibitory Zone” value [2, 9] was 0.82 mm and the “Diameter of Inhibitory Zone” value ([2]; CN (Gentamicin) as comparison) was 0.35 mm. For the same molecule, the “Diameter of Inhibitory Zone” value ([2]; Rd (Rifampicin) as comparison) was 0.42 mm, the “Diameter of Inhibitory Zone” value ([2]; Va (Vancomycin) as comparison) was 2.79 mm and the “Diameter of Inhibitory Zone” value [3, 9] was 0.87 mm. For the same molecule, the “Diameter of Inhibitory Zone” value ([3]; CN (Gentamicin) as comparison) was 0.86 mm, the “Diameter of Inhibitory Zone” value ([3]; Rd (Rifampicin) as comparison) was 0.11 mm and the “Diameter of Inhibitory Zone” value ([3]; Va (Vancomycin) as comparison) was 2.95 mm. For the same molecule, the “Diameter of Inhibitory Zone” value [4, 9] was 0.89 mm, the “Diameter of Inhibitory Zone” value ([4]; CN (Gentamicin) as comparison) was 0.44 mm and the “Diameter of Inhibitory Zone” value ([4]; Rd (Rifampicin) as comparison) was 0.44 mm. The “Diameter of Inhibitory Zone” value ([4]; Va (Vancomycin) as comparison) was 2.99 mm, the “Diameter of Inhibitory Zone” value [5, 9] was 4.73 mm and the “Diameter of Inhibitory Zone” value ([5]; CN (Gentamicin) as comparison) was 1.02 mm. The “Diameter of Inhibitory Zone” value ([5]; Rd (Rifampicin) as comparison) was 1.02 mm, the “Diameter of Inhibitory Zone” value ([5]; Va (Vancomycin) as comparison) was 7.77 mm and the “Diameter of Inhibitory Zone” value [6, 9] was 5.50 mm. For the same molecule, the “Diameter of Inhibitory Zone” value ([6]; CN (Gentamicin) as comparison) was 1.17 mm, the “Diameter of Inhibitory Zone” value ([6]; Rd (Rifampicin) as comparison) was 1.17 mm and the “Diameter of Inhibitory Zone” value ([6]; Va (Vancomycin) as comparison) was 8.26 mm. The “Diameter of Inhibitory Zone” value [7, 9] was 2.68 mm, the “Diameter of Inhibitory Zone” value ([7]; CN (Gentamicin) as comparison) was 1.13 mm and the “Diameter of Inhibitory Zone” value ([7]; Rd (Rifampicin) as comparison) was 1.13 mm. The “Diameter of Inhibitory Zone” value ([7]; Va (Vancomycin) as comparison) was 7.64 mm, the “Diameter of Inhibitory Zone” value [8, 9] was 0.84 mm and the “Diameter of Inhibitory Zone” value ([8]; CN (Gentamicin) as comparison) was 0.96 mm. For the same molecule, the “Diameter of Inhibitory Zone” value ([8]; Rd (Rifampicin) as comparison) was 0.11 mm and the “Diameter of Inhibitory Zone” value ([8]; Va (Vancomycin) as comparison) was 2.79 mm.

`CCCCCCCCCCCC(=O)OCC(O)CO` (stereo not shown) [MW, monolaurin] was tested, and the “Diameter of Inhibitory Zone” value [1, 9] was 3.72 mm, the “Diameter of Inhibitory Zone” value ([1]; CN (Gentamicin) as comparison) was 0.74 mm and the “Diameter of Inhibitory Zone” value ([1]; Rd (Rifampicin) as comparison) was 0.74 mm. The “Diameter of Inhibitory Zone” value ([1]; Va (Vancomycin) as comparison) was 5.42 mm, the “Diameter of Inhibitory Zone” value [2, 9] was 0.82 mm and the “Diameter of Inhibitory Zone” value ([2]; CN (Gentamicin) as comparison) was 0.35 mm. The “Diameter of Inhibitory Zone” value ([2]; Rd (Rifampicin) as comparison) was 0.42 mm, the “Diameter of Inhibitory Zone” value ([2]; Va (Vancomycin) as comparison) was 2.79 mm and the “Diameter of Inhibitory Zone” value [3, 9] was 0.88 mm. For the same molecule, the “Diameter of Inhibitory Zone” value ([3]; CN (Gentamicin) as comparison) was 0.88 mm, the “Diameter of Inhibitory Zone” value ([3]; Rd (Rifampicin) as comparison) was 0.11 mm and the “Diameter of Inhibitory Zone” value ([3]; Va (Vancomycin) as comparison) was 3.00 mm. For the same molecule, the “Diameter of Inhibitory Zone” value [4, 9] was 0.93 mm, the “Diameter of Inhibitory Zone” value ([4]; CN (Gentamicin) as comparison) was 0.46 mm and the “Diameter of Inhibitory Zone” value ([4]; Rd (Rifampicin) as comparison) was 0.46 mm. For the same molecule, the “Diameter of Inhibitory Zone” value ([4]; Va (Vancomycin) as comparison) was 3.12 mm, the “Diameter of Inhibitory Zone” value [5, 9] was 1.85 mm and the “Diameter of Inhibitory Zone” value ([5]; CN (Gentamicin) as comparison) was 0.40 mm. For the same molecule, the “Diameter of Inhibitory Zone” value ([5]; Rd (Rifampicin) as comparison) was 0.40 mm, the “Diameter of Inhibitory Zone” value ([5]; Va (Vancomycin) as comparison) was 3.04 mm and the “Diameter of Inhibitory Zone” value [6, 9] was 4.25 mm. For the same molecule, the “Diameter of Inhibitory Zone” value ([6]; CN (Gentamicin) as comparison) was 0.90 mm, the “Diameter of Inhibitory Zone” value ([6]; Rd (Rifampicin) as comparison) was 0.90 mm and the “Diameter of Inhibitory Zone” value ([6]; Va (Vancomycin) as comparison) was 6.38 mm. For the same molecule, the “Diameter of Inhibitory Zone” value [7, 9] was 2.14 mm, the “Diameter of Inhibitory Zone” value ([7]; CN (Gentamicin) as comparison) was 0.90 mm and the “Diameter of Inhibitory Zone” value ([7]; Rd (Rifampicin) as comparison) was 0.90 mm. The “Diameter of Inhibitory Zone” value ([7]; Va (Vancomycin) as comparison) was 6.12 mm, the “Diameter of Inhibitory Zone” value [8, 9] was 0.85 mm and the “Diameter of Inhibitory Zone” value ([8]; CN (Gentamicin) as comparison) was 0.98 mm. For the same molecule, the “Diameter of Inhibitory Zone” value ([8]; Rd (Rifampicin) as comparison) was 0.12 mm and the “Diameter of Inhibitory Zone” value ([8]; Va (Vancomycin) as comparison) was 2.84 mm.
